The values below come from patent US20170035787A1, “Fixed Dose Combination for Pain Relief Without Edema” (Autotelic LLC, priority 2014, published 2017).

For series [1] the following is noted: in vivo.
For series [2] the following is noted: cited from earlier work.
Series [3] can be described thus: Applicant's meta analysis of reported edema rates in osteoarthritic populations by celecoxib dose.
Series [4] in a line: Combined plots and meta analysis of published celecoxib pharmacokinetic data. The format is in vivo, human. The text has this:
In other words, the most efficacious celecoxib dosage is not well defined among the elderly. The problem may be more widespread than expected as elderly here is defined as patients greater than >40 or >50, not the usually definition of elderly (age greater >65).

The conditions of series [5]: CELEBREX Package Insert table; cited from earlier work.

Each structure is given as a SMILES string. Where “and” joins values, the source holds several entries; their conditions need not be identical. Equal values may be shown once. Entries after “also recorded” stand apart in the source; their conditions may differ.

Regarding `Cc1ccc(-c2cc(C(F)(F)F)nn2-c2ccc(S(N)(=O)=O)cc2)cc1` [celecoxib], the “% Edema” value in series [1] (human) is 20%. Besides, in series [1], the “effect of anti-hypertensive class on incidence of edema in patients taking CELEBREX” value is given as “steady increase in incidence of edema”; the “incidence of edema in patients taking CELEBREX with or without diuretic” value is recorded as “steady increase in incidence of edema”; the “incidence of edema with vs without CELEBREX by arthritis group” value was “increased when patients was taken CELEBREX® for all groups except for RA and no Arthritis free patients”. The incidence of edema in series [2] (two trials with much higher incidence) was 23% and 38%. The “incidence of edema at any site” value in series [2] (usual incidence in clinical trials of celecoxib) is “about 3%”. For the same compound, the “upper limit and average edema event rate” value in series [3] (400 mg/day vs 100 or 200 mg/day) is given as “more than twice as high”. Further, the edema event rates entry in series [3] (100 vs 200 mg/day dose) was “remarkably similar edema event rates”. In addition, in series [4] (FIG. 2, listed as CELEBREX®), the “variability of pharmacokinetics; 100 mg vs 200 mg dose PK results” value is given as “unexpectedly high; also recorded: substantial overlap”. The “drug exposure as defined by AUC, elderly vs younger patients” value in series [4] (age-based subgroups, FIG. 3) was “highly significant differences”. Moreover, the “patients treated who develop edema” value in series [5] was 2.1%.
Regarding `O=C(O)Cc1ccccc1Nc1c(Cl)cccc1Cl` [diclofenac], the “patients treated who develop edema” value in series [5] was 1.0%.
In the case of `CC(C)Cc1ccc(C(C)C(=O)O)cc1` (centres unmarked) [ibuprofen], the “patients treated who develop edema” value in series [5] was 3.5%.
As to `COc1ccc2cc([C@H](C)C(=O)O)ccc2c1` [naproxen], the “patients treated who develop edema” value in series [5] was 2.1%.
